One assay has as its target DNA-PK(h) (Homo sapiens, UniProt P78527). The assay can be described thus: Evaluation of inhibitory activity against DNA-PK (HTRF kinase assay, GST-cMyc-p53 substrate). Type of assay: biochemical. The conditions noted are these: compound at 0.1 μM; read-out: EXP_VALUE(% Inhibition) DNA-PK(h) 0.1 μM. The procedure, abridged:
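p53 Ser15 phosphorylation by human DNA-PK was measured by time-resolved FRET ratio (665/620 nm ×10000) using Eu-labelled anti-phospho-Ser15 and d2 anti-GST antibodies. Substrate GST-cMyc-p53 at 50 μM; Mg/ATP-initiated, 30 min at room temperature, EDTA stop.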
A general note: In TR-FRET formats the signal depends on donor and acceptor labels being close together.

Assay [1] addresses PI3K-δ (PI3K(p1108/p857) (h)) (Homo sapiens, UniProt O00329). The assay can be described thus: Evaluation of inhibitory activity against PI3K-δ (HTRF kinase assay). Type of assay: biochemical. The conditions noted are these: compound at 0.1 μM; read-out: EXP_VALUE(% Inhibition) PI3K-δ 0.1 μM. The method in brief: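 HTRF read-out (665/620 nm ratio ×10000) used Eu-labelled anti-GST, GST-tagged GRP1 PH domain and streptavidin-allophycocyanin after EDTA/PIP3 stop.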

Sequence of PI3K-δ (PI3K(p1108/p857) (h)) (O00329 whole entry, the tested form may be a part): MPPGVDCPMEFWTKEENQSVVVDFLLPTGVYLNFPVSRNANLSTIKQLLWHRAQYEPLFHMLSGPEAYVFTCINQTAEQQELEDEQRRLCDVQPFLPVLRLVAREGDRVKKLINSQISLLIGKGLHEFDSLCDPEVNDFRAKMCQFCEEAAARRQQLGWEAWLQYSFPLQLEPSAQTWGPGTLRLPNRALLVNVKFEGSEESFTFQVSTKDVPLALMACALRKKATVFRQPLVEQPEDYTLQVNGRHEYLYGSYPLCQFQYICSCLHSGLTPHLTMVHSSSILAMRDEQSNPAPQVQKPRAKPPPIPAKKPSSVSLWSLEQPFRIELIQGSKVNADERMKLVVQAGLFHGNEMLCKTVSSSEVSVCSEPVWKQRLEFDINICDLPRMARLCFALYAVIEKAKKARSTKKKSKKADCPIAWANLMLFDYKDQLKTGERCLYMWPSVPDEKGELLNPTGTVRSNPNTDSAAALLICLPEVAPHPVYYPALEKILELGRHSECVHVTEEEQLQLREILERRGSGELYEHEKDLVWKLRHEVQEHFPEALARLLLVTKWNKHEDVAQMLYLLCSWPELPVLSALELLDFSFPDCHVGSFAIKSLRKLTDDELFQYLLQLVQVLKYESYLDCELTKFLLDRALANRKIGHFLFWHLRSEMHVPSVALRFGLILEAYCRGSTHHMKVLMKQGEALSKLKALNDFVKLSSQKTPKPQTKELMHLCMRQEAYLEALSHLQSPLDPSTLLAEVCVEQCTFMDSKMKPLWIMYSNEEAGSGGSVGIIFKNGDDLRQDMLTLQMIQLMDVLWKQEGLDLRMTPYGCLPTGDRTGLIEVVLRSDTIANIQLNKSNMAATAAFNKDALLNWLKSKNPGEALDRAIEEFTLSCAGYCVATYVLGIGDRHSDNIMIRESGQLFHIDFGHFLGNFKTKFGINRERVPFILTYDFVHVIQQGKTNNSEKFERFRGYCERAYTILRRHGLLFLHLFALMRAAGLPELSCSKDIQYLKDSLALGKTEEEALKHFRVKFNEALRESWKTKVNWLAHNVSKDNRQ
Sequence of PI3K-δ (PI3K(p1108/p857) (h)) (P27986 whole entry partner, the tested form may be a part): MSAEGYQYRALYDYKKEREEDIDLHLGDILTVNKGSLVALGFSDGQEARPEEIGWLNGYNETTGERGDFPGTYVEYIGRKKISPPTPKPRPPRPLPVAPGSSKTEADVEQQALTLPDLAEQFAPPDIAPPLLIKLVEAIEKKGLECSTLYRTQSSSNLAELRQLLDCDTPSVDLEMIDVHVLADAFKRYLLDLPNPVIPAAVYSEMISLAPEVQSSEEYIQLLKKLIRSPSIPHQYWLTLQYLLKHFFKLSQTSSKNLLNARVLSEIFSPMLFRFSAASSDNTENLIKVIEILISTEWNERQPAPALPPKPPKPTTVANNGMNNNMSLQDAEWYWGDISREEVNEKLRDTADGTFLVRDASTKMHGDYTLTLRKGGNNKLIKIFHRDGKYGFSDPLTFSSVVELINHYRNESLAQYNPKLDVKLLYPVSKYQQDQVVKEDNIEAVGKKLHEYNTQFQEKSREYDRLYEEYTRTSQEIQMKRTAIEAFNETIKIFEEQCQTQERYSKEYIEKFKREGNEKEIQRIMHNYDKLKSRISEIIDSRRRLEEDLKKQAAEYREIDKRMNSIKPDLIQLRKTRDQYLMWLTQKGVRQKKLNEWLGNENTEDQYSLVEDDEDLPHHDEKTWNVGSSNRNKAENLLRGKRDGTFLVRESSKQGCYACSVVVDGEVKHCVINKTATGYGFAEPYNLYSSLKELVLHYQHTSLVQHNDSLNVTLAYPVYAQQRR

As usually defined, the inhibition is the drop in the measured response relative to a control, in per cent. In the case of `C[C@H](Nc1ncnc2[nH]ccc(=O)c12)c1c(Cl)c2cccc(S(=O)(=O)c3nc[nH]n3)c2c(=O)n1-c1ccccc1` [Example 401, (S)-4-((1-(8-((1H-1,2,4-triazol-3-yl)sulfonyl)-4-chloro-1-oxo-2-phenyl-1,2-dihydroisoquinolin-3-yl)ethyl)amino)pyrido[2,3-d]pyrimidin-5(8H)-one], the results for the inhibition at 0.1 µM (at DNA-PK(h); in assay [1]) were 24% and 42%, respectively.

As for `C[C@H](Nc1ncnc2[nH]ccc(=O)c12)c1c(Cl)c2cccc(-c3cnc(Cl)nc3)c2c(=O)n1-c1ccccc1` [Example 402, (S)-4-((1-(4-chloro-8-(2-chloropyrimidin-5-yl)-1-oxo-2-phenyl-1,2-dihydroisoquinolin-3-yl)ethyl)amino)pyrido[2,3-d]pyrimidin-5(8H)-one], the inhibition at 0.1 µM at DNA-PK(h) stood at 16%; in assay [1] it was 71%.

With `CC(=O)c1ncc(-c2cccc3c(Cl)c([C@H](C)Nc4ncnc5[nH]ccc(=O)c45)n(-c4ccccc4)c(=O)c23)cn1` [Example 403, (S)-4-((1-(8-(2-acetylpyrimidin-5-yl)-4-chloro-1-oxo-2-phenyl-1,2-dihydroisoquinolin-3-yl)ethyl)amino)pyrido[2,3-d]pyrimidin-5(8H)-one], the results for the inhibition at 0.1 µM (on DNA-PK(h); in assay [1]) were 46% and 80%, respectively.

Consider `CCOC(C)(C)c1ncc(-c2cccc3c(Cl)c([C@H](C)Nc4ncnc5[nH]ccc(=O)c45)n(-c4ccccc4)c(=O)c23)cn1` [Example 404, (S)-4-((1-(4-chloro-8-(2-(2-ethoxypropan-2-yl)pyrimidin-5-yl)-1-oxo-2-phenyl-1,2-dihydroisoquinolin-3-yl)ethyl)amino)pyrido[2,3-d]pyrimidin-5(8H)-one], for which the results for the inhibition at 0.1 µM (on DNA-PK(h); in assay [1]) were 78% and 70%, respectively.

In the case of `COC(C)(C)c1ncc(-c2cccc3c(Cl)c([C@H](C)Nc4ncnc5[nH]ccc(=O)c45)n(-c4ccccc4)c(=O)c23)cn1` [Example 405, (S)-4-((1-(4-chloro-8-(2-(2-methoxypropan-2-yl)pyrimidin-5-yl)-1-oxo-2-phenyl-1,2-dihydroisoquinolin-3-yl)ethyl)amino)pyrido[2,3-d]pyrimidin-5(8H)-one], the inhibition at 0.1 µM amounted to 74% at DNA-PK(h) and 69% in assay [1].

Regarding `CCCOC(C)(C)c1ncc(-c2cccc3c(Cl)c([C@H](C)Nc4ncnc5[nH]ccc(=O)c45)n(-c4ccccc4)c(=O)c23)cn1` [Example 406, (S)-4-((1-(4-chloro-1-oxo-2-phenyl-8-(2-(2-propoxypropan-2-yl)pyrimidin-5-yl)-1,2-dihydroisoquinolin-3-yl)ethyl)amino)pyrido[2,3-d]pyrimidin-5(8H)-one], the inhibition at 0.1 µM was found to be 71% at DNA-PK(h) and 72% in assay [1].

Regarding `C[C@H](Nc1ncnc2[nH]ccc(=O)c12)c1c(Cl)c2cccc(-c3cnc(S(C)(=N)=O)nc3)c2c(=O)n1-c1ccccc1` (stereo partly drawn) [Example 407, 4-(((1S)-1-(4-chloro-8-(2-(S-methylsulfonimidoyl)pyrimidin-5-yl)-1-oxo-2-phenyl-1,2-dihydroisoquinolin-3-yl)ethyl)amino)pyrido[2,3-d]pyrimidin-5(8H)-one], the values for the inhibition at 0.1 µM (at DNA-PK(h); in assay [1]) were 70% and 67%, respectively.

For the compound `CCC[S@@](=N)(=O)c1cccc2c(Cl)c([C@H](C)Nc3ncnc4[nH]ccc(=O)c34)n(-c3ccccc3)c(=O)c12` [Example 408, 4-(((S)-1-(4-chloro-1-oxo-2-phenyl-8-((R)-propylsulfonimidoyl)-1,2-dihydroisoquinolin-3-yl)ethyl)amino)pyrido[2,3-d]pyrimidin-5(8H)-one], the inhibition at 0.1 µM on DNA-PK(h) came out at 28%; in assay [1], 71%.

`CCC[S@](=N)(=O)c1cccc2c(Cl)c([C@H](C)Nc3ncnc4[nH]ccc(=O)c34)n(-c3ccccc3)c(=O)c12` [Example 409, 4-(((S)-1-(4-chloro-1-oxo-2-phenyl-8-((S)-propylsulfonimidoyl)-1,2-dihydroisoquinolin-3-yl)ethyl)amino)pyrido[2,3-d]pyrimidin-5(8H)-one]: the inhibition at 0.1 µM at DNA-PK(h) amounted to 53%; in assay [1] it was 17%.

The record behind these values is patent US20230072683A1, “PYRIDO-PYRIMIDIN DERIVATIVES AND PHARMACEUTICAL COMPOSITION, FOR USE IN PREVENTING OR TREATING PI3 KINASE RELATED DISEASES, COMPRISING SAME AS ACTIVE INGREDIENT” (BORYUNG PHARMACEUTICAL CO., LTD, priority 2019, published 2023).
